Test [1] concerns MOLM-14 D835Y (endogenous FLT3 ITD and transfected FLT3 D835Y). In words: MOLM-14 D835Y cell proliferation assay (CellTiter-Glo). As to conditions: Homo sapiens, MOLM-14, 72 h; 3 d growth, GMean. It counts as cell-based. An outline of the steps:
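Three-day proliferation at 37 °C/5% CO2 of FLT3-ITD MOLM-14 lines with D835Y or F691L mutation, seeded 1×10^4 per well. Compounds at eight points, top 1 μM final, 0.2% DMSO. ATP luminescence (CellTiter-Glo) gives IC50.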
Background: ATP-based viability assays read luminescence as a measure of living cells.

Another test has as its target T1, FLT3-ITD (Homo sapiens, UniProt P36888).
T1 sequence (P36888 1-993): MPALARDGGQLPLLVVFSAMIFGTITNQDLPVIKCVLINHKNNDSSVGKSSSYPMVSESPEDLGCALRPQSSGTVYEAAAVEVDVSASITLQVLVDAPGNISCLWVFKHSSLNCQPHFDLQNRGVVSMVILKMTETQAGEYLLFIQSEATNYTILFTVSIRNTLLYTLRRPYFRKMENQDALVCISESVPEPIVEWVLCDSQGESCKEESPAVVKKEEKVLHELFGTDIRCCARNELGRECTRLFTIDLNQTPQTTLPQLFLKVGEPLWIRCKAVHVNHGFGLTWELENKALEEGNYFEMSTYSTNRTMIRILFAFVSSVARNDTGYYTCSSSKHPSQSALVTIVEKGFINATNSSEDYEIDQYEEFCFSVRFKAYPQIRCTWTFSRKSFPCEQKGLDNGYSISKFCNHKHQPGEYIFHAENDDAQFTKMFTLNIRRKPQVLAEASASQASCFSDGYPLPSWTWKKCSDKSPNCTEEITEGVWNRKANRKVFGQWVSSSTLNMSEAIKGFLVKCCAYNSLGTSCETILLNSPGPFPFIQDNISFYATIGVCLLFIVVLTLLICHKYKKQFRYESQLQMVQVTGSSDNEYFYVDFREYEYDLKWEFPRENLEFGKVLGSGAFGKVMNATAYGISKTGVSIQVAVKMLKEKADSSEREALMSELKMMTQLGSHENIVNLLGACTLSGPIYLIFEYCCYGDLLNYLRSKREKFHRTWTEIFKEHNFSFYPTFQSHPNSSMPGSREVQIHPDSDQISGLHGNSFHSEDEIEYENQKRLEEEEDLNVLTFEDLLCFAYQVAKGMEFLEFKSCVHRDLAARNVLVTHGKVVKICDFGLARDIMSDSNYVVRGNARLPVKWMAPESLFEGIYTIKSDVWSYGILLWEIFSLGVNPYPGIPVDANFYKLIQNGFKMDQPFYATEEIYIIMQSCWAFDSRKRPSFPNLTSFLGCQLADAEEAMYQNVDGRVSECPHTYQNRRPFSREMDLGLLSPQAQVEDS
Nature of the test: FLT3-ITD recombinant enzyme kinase assay (AlphaScreen). The class given is biochemical. As to conditions: 8 pt; read-out: FLT3_ITD 8 pt: IC50. An outline of the steps: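 IC50 values come from AlphaScreen proximity signal: phosphorylated biotin-poly(Glu4-Tyr) (30 nM) bridges streptavidin donor and anti-phosphotyrosine PY20 acceptor beads. Enzyme reactions ran at 100 μM ATP for c-KIT versus 10 μM for both FLT3 mutants (ITD, D835Y); beads added in stop buffer, room temperature.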
On the technique in general: Alpha assays give light when donor and acceptor beads are brought close together.

SMILES strings stand for the structures.

As usually defined, the IC50 is the point on the concentration scale where inhibition reaches its midpoint. As for `COc1ncc(NC(=O)Cc2ccc(-c3cnc4[nH]c(C#Cc5cncn5C)cc4c3)cc2)cc1C(F)(F)F` [Compound P-0227, N-[6-methoxy-5-(trifluoromethyl)-3-pyridyl]-2-[4-[2-[2-(3-methylimidazol-4-yl)ethynyl]-1H-pyrrolo[2,3-b]pyridin-5-yl]phenyl]acetamide], the IC50 (in test [1]; on FLT3-ITD) was 0.0001 to 10 µM each time.
As to `Cc1nn(C)cc1Nc1ncc(-c2ccc(CC(=O)Nc3cnc(C)c(C(F)(F)F)c3)cc2)cn1` [Compound P-0228, 2-[4-[2-[(1,3-dimethylpyrazol-4-yl)amino]pyrimidin-5-yl]phenyl]-N-[6-methyl-5-(trifluoromethyl)-3-pyridyl]acetamide], the IC50 (in test [1]; on FLT3-ITD) was 0.0001 to 10 µM each time.
As for `Cc1ncc(NC(=O)Cc2ccc(-c3cnc(Nc4cnn(C)c4C)nc3)cc2)cc1C(F)(F)F` [Compound P-0229, 2-[4-[2-[(1,5-dimethylpyrazol-4-yl)amino]pyrimidin-5-yl]phenyl]-N-[6-methyl-5-(trifluoromethyl)-3-pyridyl]acetamide], the IC50 (in test [1]; on FLT3-ITD) was 0.0001 to 10 µM each time.
Take `COc1ncc(NC(=O)Cc2ccc(-c3cnc4[nH]nc(Cl)c4c3)cc2)cc1C(F)(F)F` [Compound P-0230, 2-[4-(3-chloro-1H-pyrazolo[3,4-b]pyridin-5-yl)phenyl]-N-[6-methoxy-5-(trifluoromethyl)-3-pyridyl]acetamide]: the IC50 (in test [1]; on FLT3-ITD) was 0.0001 to 10 µM throughout.
`O=C(Cc1ccc(-c2cnc(Nc3cnn(C4CC4)c3)nc2)cc1)Nc1cncc(C(F)(F)F)c1` [Compound P-0231, 2-[4-[2-[(1-cyclopropylpyrazol-4-yl)amino]pyrimidin-5-yl]phenyl]-N-[5-(trifluoromethyl)-3-pyridyl]acetamide]: the 50% inhibitory concentration (IC50) (in test [1]; on FLT3-ITD) was 0.0001 to 10 µM throughout.
For `Cc1ncc(NC(=O)Cc2ccc(-c3cnc(Nc4cnn(C5CC5)c4)nc3)cc2)cc1C(F)(F)F` [Compound P-0232, 2-[4-[2-[(1-cyclopropylpyrazol-4-yl)amino]pyrimidin-5-yl]phenyl]-N-[6-methyl-5-(trifluoromethyl)-3-pyridyl]acetamide], the IC50 (in test [1]; at FLT3-ITD) was 0.0001 to 10 µM each time.
`O=C(Cc1ccc(-c2cnc(Nc3cnn(C4CC4)c3)nc2)cc1)Nc1cnc(Cl)c(C(F)(F)F)c1` [Compound P-0233, N-[6-chloro-5-(trifluoromethyl)-3-pyridyl]-2-[4-[2-[(1-cyclopropylpyrazol-4-yl)amino]pyrimidin-5-yl]phenyl]acetamide]: the IC50 (in test [1]; on FLT3-ITD) was 0.0001 to 10 µM each time.
In the case of `COc1ncc(NC(=O)Cc2ccc(-c3cnc(Nc4cnn(C5CC5)c4)nc3)cc2)cc1C(F)(F)F` [Compound P-0234, 2-[4-[2-[(1-cyclopropylpyrazol-4-yl)amino]pyrimidin-5-yl]phenyl]-N-[6-methoxy-5-(trifluoromethyl)-3-pyridyl]acetamide], the IC50 (in test [1]; at FLT3-ITD) was 0.0001 to 10 µM throughout.
Turning to `O=C(Cc1ccc(-c2cnc(Nc3cnn(C4CC4)c3)nc2)cc1)Nc1ccc(C(F)(F)F)nc1` [Compound P-0235, 2-[4-[2-[(1-cyclopropylpyrazol-4-yl)amino]pyrimidin-5-yl]phenyl]-N-[6-(trifluoromethyl)-3-pyridyl]acetamide], the IC50 (in test [1]; at FLT3-ITD) was 0.0001 to 10 µM each time.
As for `O=C(Cc1ccc(-c2cnc(Nc3cnn(C4CC4)c3)nc2)cc1)Nc1ccc(C(F)(F)F)cn1` [Compound P-0236, 2-[4-[2-[(1-cyclopropylpyrazol-4-yl)amino]pyrimidin-5-yl]phenyl]-N-[5-(trifluoromethyl)-2-pyridyl]acetamide], the IC50 (in test [1]; on FLT3-ITD) was 0.0001 to 10 µM in each case.
With `O=C(Cc1ccc(-c2cnc(Nc3cnn(C4CC4)c3)nc2)cc1)Nc1cc(C(F)(F)F)ccn1` [Compound P-0237, 2-[4-[2-[(1-cyclopropylpyrazol-4-yl)amino]pyrimidin-5-yl]phenyl]-N-[4-(trifluoromethyl)-2-pyridyl]acetamide], the half-maximal inhibitory concentration (IC50) (in test [1]; on FLT3-ITD) was 0.0001 to 10 µM throughout.
On to `O=C(Cc1ccc(-c2cnc(Nc3cnn(C4CC4)c3)nc2)cc1F)Nc1cncc(C(F)(F)F)c1` [Compound P-0238, 2-[4-[2-[(1-cyclopropylpyrazol-4-yl)amino]pyrimidin-5-yl]-2-fluoro-phenyl]-N-[5-(trifluoromethyl)-3-pyridyl]acetamide], for which the IC50 (in test [1]; on FLT3-ITD) was 0.0001 to 10 µM each time.
As to `Cc1ncc(NC(=O)Cc2ccc(-c3cnc(Nc4cnn(C5CC5)c4)nc3)cc2F)cc1C(F)(F)F` [Compound P-0239, 2-[4-[2-[(1-cyclopropylpyrazol-4-yl)amino]pyrimidin-5-yl]-2-fluoro-phenyl]-N-[6-methyl-5-(trifluoromethyl)-3-pyridyl]acetamide], the IC50 (in test [1]; on FLT3-ITD) was 0.0001 to 10 µM throughout.
`O=C(Cc1ccc(-c2cnc(Nc3cnn(C4CC4)c3)nc2)cc1F)Nc1cnc(Cl)c(C(F)(F)F)c1` [Compound P-0240, N-[6-chloro-5-(trifluoromethyl)-3-pyridyl]-2-[4-[2-[(1-cyclopropylpyrazol-4-yl)amino]pyrimidin-5-yl]-2-fluoro-phenyl]acetamide]: the half-maximal inhibitory concentration (IC50) (in test [1]; at FLT3-ITD) was 0.0001 to 10 µM in each case.
For the molecule `COc1ncc(NC(=O)Cc2ccc(-c3cnc(Nc4cnn(C5CC5)c4)nc3)cc2F)cc1C(F)(F)F` [Compound P-0241, 2-[4-[2-[(1-cyclopropylpyrazol-4-yl)amino]pyrimidin-5-yl]-2-fluoro-phenyl]-N-[6-methoxy-5-(trifluoromethyl)-3-pyridyl]acetamide], the IC50 (in test [1]; on FLT3-ITD) was 0.0001 to 10 µM in each case.
`O=C(Cc1ccc(-c2cnc(Nc3cnn(C4CC4)c3)nc2)cc1F)Nc1ccc(C(F)(F)F)nc1` [Compound P-0242, 2-[4-[2-[(1-cyclopropylpyrazol-4-yl)amino]pyrimidin-5-yl]-2-fluoro-phenyl]-N-[6-(trifluoromethyl)-3-pyridyl]acetamide]: the IC50 (in test [1]; on FLT3-ITD) was 0.0001 to 10 µM each time.
Turning to `O=C(Cc1ccc(-c2cnc(Nc3cnn(C4CC4)c3)nc2)cc1F)Nc1ccc(C(F)(F)F)cn1` [Compound P-0243, 2-[4-[2-[(1-cyclopropylpyrazol-4-yl)amino]pyrimidin-5-yl]-2-fluoro-phenyl]-N-[5-(trifluoromethyl)-2-pyridyl]acetamide], the IC50 (in test [1]; at FLT3-ITD) was 0.0001 to 10 µM in each case.
Turning to `O=C(Cc1ccc(-c2cnc(Nc3cnn(C4CC4)c3)nc2)cc1F)Nc1cc(C(F)(F)F)ccn1` [Compound P-0244, 2-[4-[2-[(1-cyclopropylpyrazol-4-yl)amino]pyrimidin-5-yl]-2-fluoro-phenyl]-N-[4-(trifluoromethyl)-2-pyridyl]acetamide], the IC50 (in test [1]; at FLT3-ITD) was 0.0001 to 10 µM in each case.
Consider `CCn1cc(Nc2ncc(-c3ccc(CC(=O)Nc4cc(C(F)(F)F)ccn4)cc3)cn2)cn1` [Compound P-0250, 2-[4-[2-[(1-ethylpyrazol-4-yl)amino]pyrimidin-5-yl]phenyl]-N-[4-(trifluoromethyl)-2-pyridyl]acetamide], for which the IC50 (in test [1]; on FLT3-ITD) was 0.0001 to 10 µM each time.
Turning to `CCn1cc(Nc2ncc(-c3ccc(CC(=O)Nc4ccc(C(F)(F)F)cn4)cc3)cn2)cn1` [Compound P-0251, 2-[4-[2-[(1-ethylpyrazol-4-yl)amino]pyrimidin-5-yl]phenyl]-N-[5-(trifluoromethyl)-2-pyridyl]acetamide], the IC50 (in test [1]; at FLT3-ITD) was 0.0001 to 10 µM throughout.
For `CCn1cc(Nc2ncc(-c3ccc(CC(=O)Nc4ccc(C(F)(F)F)nc4)cc3)cn2)cn1` [Compound P-0252, 2-[4-[2-[(1-ethylpyrazol-4-yl)amino]pyrimidin-5-yl]phenyl]-N-[6-(trifluoromethyl)-3-pyridyl]acetamide], the half-maximal inhibitory concentration (IC50) (in test [1]; on FLT3-ITD) was 0.0001 to 10 µM throughout.
For the molecule `CCn1cc(Nc2ncc(-c3ccc(CC(=O)Nc4cnc(OC)c(C(F)(F)F)c4)cc3)cn2)cn1` [Compound P-0253, 2-[4-[2-[(1-ethylpyrazol-4-yl)amino]pyrimidin-5-yl]phenyl]-N-[6-methoxy-5-(trifluoromethyl)-3-pyridyl]acetamide], the IC50 (in test [1]; on FLT3-ITD) was 0.0001 to 10 µM in each case.

The record behind these values is patent US10160747B2, “Compounds and methods for kinase modulation, and indications therefor” (Plexxikon Inc., priority 2016, dated 2018).
